Results reported in US20240059703A1 (AMGEN INC., priority 2021, published 2024).

Tests used:
KRAS G12C = KRAS G12C (Homo sapiens (Human), UniProt P01116, C118A/G12C); experiment: 2 h coupled exchange assay; format: biochemical; conditions: Avg 2 h Coupled exchange IC50, 2 h compound pre-incubation
Protocol: The term “2 h coupled exchange assay” or “20 h coupled exchange assay” as used herein refers to the assay described in the Section entitled “BIOLOGICAL EVALUATION.”

[1] = tested on: MIA PaCa-2 (human pancreatic carcinoma) cells; experiment: Cell Viability Assay (CellTiter-Glo), MIA PaCa-2; format: cell-based
Protocol: Serially-diluted compound or DMSO was added to the cells, and plates were incubated at 37° C., 5% CO2 for 72 h. Cell viability was measured using a CellTiter-Glo® Luminescent Cell Viability Assay kit (Promega) according to the manufacturer's protocol. The luminescence signal of treated samples was normalized to DMSO control, and data were analyzed using a 4-parameter logistic model to calculate IC50 values.

[2] = tested on: A549 (human lung carcinoma) cells; experiment: Cell Viability Assay (CellTiter-Glo), A549; format: cell-based
Method in brief: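 Cells grown in RPMI 1640 with 10% FBS were seeded at 1.67E+04 cells/mL and left overnight at 37° C., 5% CO2. They were then exposed to serially diluted compound for 72 h, after which CellTiter-Glo luminescence was read, normalized to DMSO, and fitted to a 4-parameter logistic model for IC50.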

[3] = SOS-mediated nucleotide exchange

Sequence of KRAS G12C (P01116 other isoform, or with tags, fused parts or gaps G12C/C118A): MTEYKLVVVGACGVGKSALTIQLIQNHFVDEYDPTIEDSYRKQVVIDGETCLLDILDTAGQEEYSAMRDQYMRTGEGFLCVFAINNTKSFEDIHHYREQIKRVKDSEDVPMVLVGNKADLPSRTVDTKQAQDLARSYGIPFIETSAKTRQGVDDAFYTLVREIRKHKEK

IC50 (KRAS G12C) [nM]	IC50 ([1]; Homo sapiens, MIA PaCa-2, 72 h) [nM]	IC50 ([2]; Homo sapiens, A549, 72 h) [nM]	IC50 (KRAS G12C; [3]) [nM]	IC50 ([1]; 72 h) [nM]	IC50 ([2]; 72 h) [nM]	SMILES
890	5380	6780				C=CC(=O)N1CC2(CCN(c3nc4cc(-c5scnc5C)c(C)cc4c(-c4ccccc4Cl)c3C#N)C2)C1 [Example 20-10, 2-(2-acryloyl-2,6-diazaspiro[3.4]octan-6-yl)-4-(2-chlorophenyl)-6-methyl-7-(4-methylthiazol-5-yl)quinoline-3-carbonitrile]
	82	> 5000	26			C=CC(=O)N1CC2(CCN(c3nc4c(c(-c5cc(O)cc(Cl)c5C)c3C)COC(C)(C)C4)C2)C1 (single isomer, unassigned) [Example 12-43, (M)-1-(6-(4-(3-chloro-5-hydroxy-2-methylphenyl)-3,7,7-trimethyl-7,8-dihydro-5H-pyrano[4,3-b]pyridin-2-yl)-2,6-diazaspiro[3.4]octan-2-yl)prop-2-en-1-one]
363	1130	> 5000				C=CC(=O)N1CC2(CCN(c3nc4cc(-c5scnc5C)cnc4c(-c4ccccc4OC)c3C#N)C2)C1 [Example 19-6, 4-(2-methoxyphenyl)-7-(4-methyl-1,3-thiazol-5-yl)-2-(2-(2-propenoyl)-2,6-diazaspiro[3.4]octan-6-yl)-1,5-naphthyridine-3-carbonitrile]
	1620	> 5000	357			COC/C=C/C(=O)N1CC2(CCN(c3nc4c(c(-c5c(C)ccc6[nH]ncc56)c3C#N)CCC(C)(C)C4)C2)C1 [Example 13-4, 2-(2-((2E)-4-methoxy-2-butenoyl)-2,6-diazaspiro[3.4]octan-6-yl)-7,7-dimethyl-4-(5-methyl-1H-indazol-4-yl)-5,6,7,8-tetrahydro-3-quinolinecarbonitrile]
2960				4560	7600	C=CC(=O)N1CC2(CCN(c3nc4cc(-c5scnc5C)ccc4c(-c4c(O)cccc4F)c3C#N)C2)C1 (single isomer, unassigned) [Example 19-15, (M)-4-(2-fluoro-6-hydroxyphenyl)-7-(4-methyl-1,3-thiazol-5-yl)-2-(2-(2-propenoyl)-2,6-diazaspiro[3.4]octan-6-yl)-3-quinolinecarbonitrile]
	8290	10600	4250			C=CC(=O)N1CC2(CCN(c3nc4c(c(-c5cccc(Cl)c5Cl)n3)CCCC4)C2)C1 [Example 1-24, 1-(6-(4-(2,3-dichlorophenyl)-5,6,7,8-tetrahydro-2-quinazolinyl)-2,6-diazaspiro[3.4]octan-2-yl)-2-propen-1-one]
104		2880		591		C=CC(=O)N1CC2(CCN(c3nc4c(c(-c5ccc(F)cc5Cl)c3C#N)CCC(c3scnc3C)=C4)C2)C1 [Example 23-18, 4-(2-chloro-4-fluorophenyl)-7-(4-methyl-1,3-thiazol-5-yl)-2-(2-(2-propenoyl)-2,6-diazaspiro[3.4]octan-6-yl)-5,6-dihydro-3-quinolinecarbonitrile]
	92	> 5000	34			C=CC(=O)N1CC2(CCN(c3nc4c(c(-c5c(C)ccc6[nH]ncc56)c3C#N)COC(C)(C)C4)C2)C1 [Example 13-95, 2-(2-acryloyl-2,6-diazaspiro[3.4]octan-6-yl)-7,7-dimethyl-4-(5-methyl-1H-indazol-4-yl)-7,8-dihydro-5H-pyrano[4,3-b]pyridine-3-carbonitrile]
128	487	> 5000				C=CC(=O)N1CC2(CCN(c3nc4c(c(-c5ccccc5F)c3C#N)CCC(c3scnc3CO)=C4)C2)C1 [Example 23-56, 4-(2-fluorophenyl)-7-(4-(hydroxymethyl)-1,3-thiazol-5-yl)-2-(2-(2-propenoyl)-2,6-diazaspiro[3.4]octan-6-yl)-5,6-dihydro-3-quinolinecarbonitrile]
	452	> 5000	44			C=CC(=O)N1CC2(CCN(c3nc4c(c(-c5c(C)ccc6[nH]ncc56)c3C#N)CCCCC4)C2)C1 [Example 2-10, 4-(5-methyl-1H-indazol-4-yl)-2-(2-(2-propenoyl)-2,6-diazaspiro[3.4]octan-6-yl)-6,7,8,9-tetrahydro-5H-cyclohepta[b]pyridine-3-carbonitrile]
	224	3000	12			C=CC(=O)N1CC2(CCN(c3nc4c(c(-c5ccccc5Cl)c3C#N)CC[C@@H](c3ccnn3C)C4)C2)C1 [Example 13-20, (7R)-4-(2-chlorophenyl)-7-(1-methyl-1H-pyrazol-5-yl)-2-(2-(2-propenoyl)-2,6-diazaspiro[3.4]octan-6-yl)-5,6,7,8-tetrahydro-3-quinolinecarbonitrile]
	3240	> 5000	1680			C=CC(=O)N1CC2(CCN(c3nc(-c4ccccc4F)c4c(n3)N([C@H](CC(=O)NC)CC(C)C)CCC4)C2)C1 (single isomer, unassigned) [Example 10]
814	3510	14100				C=CC(=O)N1CC2(CCN(c3nc4c(c(-c5ccccc5F)c3C#N)CCN(c3nccn3C)C4)C2)C1 [Example 34-1, 4-(2-fluorophenyl)-7-(1-methyl-1H-imidazol-2-yl)-2-(2-(2-propenoyl)-2,6-diazaspiro[3.4]octan-6-yl)-5,6,7,8-tetrahydro-1,7-naphthyridine-3-carbonitrile]
415	1400	5680				C=CC(=O)N1CC2(CCN(c3nc4c(c(-c5ccc(F)cc5Cl)c3C#N)CO[C@H](c3scnc3C)C4)C2)C1 [Example 23-28, (7S)-4-(2-chloro-4-fluorophenyl)-7-(4-methyl-1,3-thiazol-5-yl)-2-(2-(2-propenoyl)-2,6-diazaspiro[3.4]octan-6-yl)-7,8-dihydro-5H-pyrano[4,3-b]pyridine-3-carbonitrile]
58	717	4180				C=CC(=O)N1CC2(CCN(c3nc4cc(-c5scnc5C)ccc4c(-c4c(O)cccc4F)c3C#N)C2)C1 [Example 19-3, 4-(2-fluoro-6-hydroxyphenyl)-7-(4-methyl-1,3-thiazol-5-yl)-2-(2-(2-propenoyl)-2,6-diazaspiro[3.4]octan-6-yl)-3-quinolinecarbonitrile]
	71	> 5000	29			C=CC(=O)N1CC2(CCN(c3nc4c(c(-c5c(C)cc(F)c6[nH]ncc56)c3C#N)CCC(C)(C)C4)C2)C1 [Example 13-146, 4-(7-fluoro-5-methyl-1H-indazol-4-yl)-7,7-dimethyl-2-(2-(2-propenoyl)-2,6-diazaspiro[3.4]octan-6-yl)-5,6,7,8-tetrahydro-3-quinolinecarbonitrile]
169	2240	> 5000				C=CC(=O)N1CC2(CCN(c3nc4c(c(-c5ccccc5F)c3C#N)COC(c3scnc3C)C4)C2)C1 [Example 23-8, (7R)-4-(2-fluorophenyl)-7-(4-methyl-1,3-thiazol-5-yl)-2-(2-(2-propenoyl)-2,6-diazaspiro[3.4]octan-6-yl)-7,8-dihydro-5H-pyrano[4,3-b]pyridine-3-carbonitrile(7S)-4-(2-fluorophenyl)-7-(4-methyl-1,3-thiazol-5-yl)-2-(2-(2-propenoyl)-2,6-diazaspiro[3.4]octan-6-yl)-7,8-dihydro-5H-pyrano[4,3-b]pyridine-3-carbonitrile]
834	3100	8810				C=CC(=O)N1CC2(CCN(c3nc4cc(OC(C)C)ccc4c(-c4ccccc4Cl)c3C#N)C2)C1 [Example 20-11, 4-(2-chlorophenyl)-7-(2-propanyloxy)-2-(2-(2-propenoyl)-2,6-diazaspiro[3.4]octan-6-yl)-3-quinolinecarbonitrile]
	1370	> 5000	102			C=CC(=O)N1CC2(CCN(c3nc4c(c(-c5c(C)ccc6[nH]ncc56)c3C#N)CCC43CC3)C2)C1 [Example 13-101, 2-(2-acryloyl-2,6-diazaspiro[3.4]octan-6-yl)-4-(5-methyl-1H-indazol-4-yl)-5,6-dihydrospiro[cyclopenta[b]pyridine-7,1′-cyclopropane]-3-carbonitrile]
	423	> 5000	46			C=CC(=O)N1CC2(CCN(c3nc4c(c(-c5c(C)ccc6[nH]ncc56)c3C#N)CCC4(C)C)C2)C1 [Example 13-97, 2-(2-acryloyl-2,6-diazaspiro[3.4]octan-6-yl)-7,7-dimethyl-4-(5-methyl-1H-indazol-4-yl)-6,7-dihydro-5H-cyclopenta[b]pyridine-3-carbonitrile]
355	1450	8220				C=CC(=O)N1CC2(CCN(c3nc4c(c(-c5ccc(F)cc5F)c3C#N)CCN(C3CCCN(C)C3)C4)C2)C1 [Example 21-32, 4-(2,4-difluorophenyl)-7-((3R)-1-methyl-3-piperidinyl)-2-(2-(2-propenoyl)-2,6-diazaspiro[3.4]octan-6-yl)-5,6,7,8-tetrahydro-1,7-naphthyridine-3-carbonitrile|4-(2,4-difluorophenyl)-7-((3S)-1-methyl-3-piperidinyl)-2-(2-(2-propenoyl)-2,6-diazaspiro[3.4]octan-6-yl)-5,6,7,8-tetrahydro-1,7-naphthyridine-3-carbonitrile]
